From patent US20140221210A1, “ACYL-HOMOSERINE LACTONE DERIVATIVES FOR IMPROVING PLANT YIELD” (priority 2011, published 2014)

Key:
AMF spores = test: Arbuscular mycorrhizal fungi (AMF) spore germination experiment; assay type: cell-based; details: 10^−8M in M-medium, 26.5° C. dark, average of 3 replicates
Method: Test is performed under lab conditions. The active ingredient was solved in a solvent (acetone) and added to warm culture medium (M-medium; Bécard et Fortin, 1988) to obtain a final concentration of 10^−8M. After filling the culture medium in 24-well plates, AMF spores were deposited on the surface of culture medium. Plates were incubated at 26.5° C. in the dark. Assessment consisted of counting of germinated spores 3 and 4 days after application (daa).

[1] = test system: Glomus intraradices / Medicago truncatula plantlets; test: In vitro phosphate (33P) transport to host plant by mycorrhizal fungi; assay type: in vivo; details: 96 hours after addition of 33P, average of 4 replicates
Method: One-week-old Medicago truncatula plantlets were transferred in the AM-P in vitro culture systems (details on AM-P systems see: H. Dupré Boulois et al., 2006). The roots were placed in the root compartment (RC) on the surface of the solid MSR medium (Declerck et al., 2003) lacking vitamins and sucrose. The RC was filled with 25 ml and the hyphal compartment (HC) with 20 ml of solid MSR medium, lacking sucrose, vitamins and solidified with 3 g l^−1 Phytagel.
Roots of M. truncatula plantlets were subsequently inoculated with the spores (±100) of Glomus intraradices. The bi-compartmented Petri plates of the AM-P in vitro culture systems were then sealed using Parafilm (Pechiney, Menasha, Wis., USA) and wrapped in black plastic bags to maintain roots and the G. intraradices in the dark. The AM-P in vitro culture systems were subsequently incubated in a controlled environment chamber (20° C., 16 h photoperiod). The AMP in vitro culture systems were supplied weekly with 5 ml of MSR medium up to 2 weeks before radio-isotopic labelling (10 weeks after inoculation).
Three weeks after inoculation, AM fungal mycelium started to contact the roots and to develop in the entire volume of the RCs. Between week 5 and 7, the mycelium crossed the partition wall between the RCs and HCs and started to develop in the HCs. The roots that crossed the plastic barrier were trimmed to leave the HC void of roots. Eight weeks after inoculation, the medium contained in the HCs was removed and then replaced by fresh MSR medium, lacking sucrose, vitamins and solidified with 3 g l^−1 Phytagel. In this medium, the active ingredient at the desired concentrations (in 0.1% acetone) was also added. The mycelium started immediately to re-grow into the fresh medium containing the active ingredient. At time of labeling, the mycelium in the HCs was 2 weeks-old.
Ten weeks after beginning of the experiment (i.e. 2 weeks after initiation of hyphal development in the HCs containing the active ingredient), filter-sterilized (Acrodisc® Syringe Filters, PALL Corporation, Ann Arbor, Mich., USA) phosphorus (^33P) was added in the HCs (489520+/−12080 CPM per systems). The source of ^33P was orthophosphate in dilute hydrochloric acid (<0.1 M) supplied by Amersham Pharmacia Biotech (Buckinghamshire, UK). A control treatment was included. Four replicates were considered per treatment.
At the end of the experiment (i.e. 96 hours after the addition of ^33P), the shoots of M. truncatula were collected by cutting the shoots at the level of the solidified MSR medium contained in the RCs. The roots were then removed from the solidified MSR medium and cleaned-free from the remaining gel and extraradical mycelium. Root and shoots were oven dried (60° until constant weight) and weighted. […]

Soybean seeds = test: Germination test on soybean seeds; assay type: in vivo; details: agar plates, 7.5° C. dark, 5 replicates of 20 seeds
Method: (§1) The test is performed under lab conditions. Soybean and maize seeds, treated with the active ingredient solved in DMSO and diluted with water to the desired dosages, are placed on sterile agar plates (0.5% agar in water). Covered plates are incubated at 7.5° C. and 10° C. respectively in the dark. Wheat seeds, treated with the active ingredient, solved in DMSO and diluted with water to the desired dosages, are placed on sterile agar plates (1% agar in water). Covered plates are incubated at 7.5° C. in the dark. Controls are performed in the same conditions in the absence of the active ingredient. Assessment consisted of counting germinated seeds per plate at different time points.

Maize seeds = test: Germination test on maize seeds; assay type: in vivo; details: agar plates, 10° C. dark, 5 replicates of 20 seeds
Method: as §1

Wheat seeds = test: Germination test on wheat seeds; assay type: in vivo; details: agar plates, 7.5° C. dark, 5 replicates of 20 seeds
Method: as §1

[2] = test system: maize roots inoculated with arbuscular mycorrhizal fungi; test: Greenhouse experiment on maize under low phosphate conditions (mycorrhization of roots); assay type: in vivo; details: maize seed treatment 0.1 mg/ha, AMF inoculum, low phosphate (20 μM), 6 weeks greenhouse, trypan blue staining
Method: Test is performed in the greenhouse. 5 maize seeds per treatment were sown in 500 ml rose pots (7×7×18 cm) containing a mix of sand and perlite (1:1). 3 replicates were made. The active ingredient was solved in a DMSO and seed treatment was performed with lab equipment. To inoculate with arbuscular mycorrhizal fungi, 8 ml inoculum (AMykor GmbH; Germany) were mixed with 1 l of the sand-perlite mixture. Seeds were covered by 3 cm of LECA (light expanded clay aggregate). Pots were incubated in the greenhouse for 6 weeks at 21.5° C./14° C. (day/night) and 80% relative humidity. Once a week plants were watered with nutrient solution (half concentrated Hoagland solution (Hoagland and Arnon, 1950)) containing only a low concentration of phosphate (20 μM). Assessment consisted of mycorrhization of roots. Mycorrhization was evaluated after trypan blue staining by microscopy. Controls are performed in the same conditions in the absence of the active ingredient.

Maize plants = test: Greenhouse experiment on maize (SPAD chlorophyll reading); assay type: in vivo; details: seeds soaked, 0.1 mg/ha, 45 days after seeding, average of 4 replicates
Method: Test is performed under greenhouse conditions. Plants were grown in pots on a growth bench in the greenhouse at constant air temperature of 25° C. (day) and 20° C. (night) and 65% relative humidity. Plants were regularly watered with ½ strength Hoagland's solution containing nitrogen (Hoagland and Arnon, 1950) as needed. Maize seeds were carefully surface sterilized in 2% sodium hypochlorite for 3 min. followed by several rinsing with sterile distilled water (Bhuvaneswari et al. 1980). Seeds were directly sown in pots ([…]) containing a mixture of sand and turface (2:1, v/v) (2.5 L in each pot. Five seeds were put in each pot. The seeds were covered gently with the potting mixture and kept on the growth bench. After counting emergence, seedlings were thinned to one seedling per pot. Before sowing, seeds were soaked in solution containing the active ingredient at the desired concentration for at least two hours. The plants were allowed to grow for 45 days after seeding and were then harvested for final data collection. Data were collected on the SPAD meter readings (leaf greenness measurements (chlorophyll content); SPAD-502 Chlorophyll Meter (Konica Minolta Sensing Inc., Japan)

Soybean plants = test: Greenhouse experiment on soybean inoculated with Bradyrhizobium japonicum; assay type: in vivo
Method: Test is performed under greenhouse conditions. The experiment was conducted at a constant air temperature of 25° C. (day) and 20° C. (night) and 65% relative humidity. Plants were regularly watered with ½ strength Nitrogen free Hoagland's solution (Hoagland and Arnon, 1950) as needed.
Initial culture of Bradyrhizobium japonicum was prepared by inoculating single cell colonies from petri plates in 200 mL Yeast Extract Mannithol (YEM) broth (pH 6.8) and incubated at 28° C. and shaken at 150 rpm until an OD600 of 0.2-0.3 is achieved (2-3 days). Absorbance (A600 nm) of the bacterial cultures was determined using a spectrophotometer. The culture was diluted to an OD600 of 0.08 and 1 mL of this culture was used for inoculation onto seeds of all treatments.
Soybean seeds were surface sterilized in 2% sodium hypochlorite for 3 min and then rinsed several times with distilled water (Bhuvaneswari et al. 1980). Seeds were directly sown in pots (130 mm diameter) containing a mixture of sand and turface (2:1, v/v). Five soybean seeds were put in each. Before sowing seeds were soaked in solution containing the active ingredient at the desired concentration for at least two hours. Bradyrhizobium japonicum inoculant prepared as described above was inoculated onto soybean seeds by pipetting 1 mL of diluted culture onto each seed. The seeds were covered gently with the potting mixture, kept on the growth bench. After monitoring emergence, seedlings were thinned to one seedling per pot.
The plants were allowed to grow for 45 days after seeding and were then harvested for final data collection. Data were collected on the following variables: • 1. SPAD meter readings (leaf greenness measurements (chlorophyll content); SPAD-502 Chlorophyll Meter (Konica Minolta Sensing Inc., Japan) • 2. Number of nodules per plant • 3. Nodule dry weight

Spring wheat = Spring wheat field trial (2010); assay type: in vivo; details: seed treatment of spring wheat, result in words
Method: Maize and wheat field trials were conducted in order to evaluate several assessments including the weight of plant (leaf+roots), the formation of mycorrhiza, and yield parameters like the weight of grains per plot in tons per ha and the 1000 kernel weight. In addition to the tested compounds, a basic treatment of fungicides was also applied on the seeds. The tested active ingredients were pre-diluted in DMSO and applied on seeds in tank mix with fungicides. Spring wheat: Germany (Monheim), soil description: sandy loam, phosphor 11 mg/100 g soil, potassium 14 mg/100 g soil, magnesium 8 mg/100 g soil, organic matter 1.2%, pH 6.4. Sowing date: 2010-04-01 In both crops no phosphate or potassium fertilizer were applied. Compound A1: 0.1 and 1 milligrams active ingredient per hectare Base: Fungicide: Fluoxastrobin+Prothioconazole+Tebuconazole FS 80/Dosage: 5.6+5.6+0.747 grams active ingredient per 100 kg seeds. The following yield parameters were assessed: tons per hectare (for wheat only), TKW=1000 kernel weight. Mycorrhization of roots of spring wheat plants was assessed by trypan blue staining followed by microscopy.

Arabidopsis root = details: literature report (Planta, 2008); cited from earlier work
[3] = soybean, seeds soaked, 0.1 mg/ha, 45 days after seeding, average of 4 replicates

In the case of `CCCCCC(=O)CC(=O)NC1CCOC1=O` (centres unmarked) [Compound A1], the “Germination rate 3 daa” value (AMF spores; 3 days after application) is reported as 58%, the “Germination rate 4 daa” value (AMF spores; 4 days after application) is reported as 78% and the “^33P counting root” value ([1]; 10^−6 M in hyphal compartment) is reported as 121485.7. For the same molecule, the “^33P counting shoot” value ([1]; 10^−6 M in hyphal compartment) was 61277.6, the “^33P counting root” value ([1]; 10^−7 M in hyphal compartment) was 111374.4 and the “^33P counting shoot” value ([1]; 10^−7 M in hyphal compartment) was 70473.9. For the same molecule, the “Soybean Germination rate 7 daa” value (Soybean seeds; seed treatment 0.1 mg/ha) was 77%, the “Soybean Germination rate 7 daa” value (Soybean seeds; seed treatment 1 mg/ha) was 84% and the “Maize Germination rate 6 daa” value (Maize seeds; seed treatment 0.1 mg/ha) was 95%. The “Maize Germination rate 6 daa” value (Maize seeds; seed treatment 1 mg/ha) was 94%, the “Wheat Germination rate 3 daa” value (Wheat seeds; seed treatment 0.1 mg/ha) was 52% and the “Wheat Germination rate 3 daa” value (Wheat seeds; seed treatment 1 mg/ha) was 69%. For the same molecule, the Mycorrhization [2] was 4.3%, the SPAD (Maize plants) was 42 and the “biomass (root and shoot)” value (Soybean plants; soybean seeds treated, greenhouse, comparatively to the control, figures not given) was “increase of biomass (root and shoot)”. For the same molecule, the “Nodule weight (dry)” value (Soybean plants; [3]) was 0.180 g, the Number of nodules (Soybean plants; [3]) was 84 and the SPAD (Soybean plants; [3]) was 34. For the same molecule, the yield (Spring wheat) was “significative yield increase”.

For `CCCCCC(=O)NC1CCOC1=O` (centres unmarked) [N-hexanoyl-d1-homoserine-lactone], the Arabidopsis root length (Arabidopsis root) is given as “small increase”.
